{"source": "paper PMC7367207", "about": "(2020)", "key": {"[1]": {"test_system": "crystallized SAM/SAH riboswitch (RNA1-26 + RNA2-9) (RNA, riboswitch, 5-bromocytidine at 4 of strand 1) GGUCACAACGGCUUCCUGGCGUGACC/AUUGGAGCA", "assay": "X-ray crystallography", "details": "crystal"}, "[2]": {"test_system": "SAM/SAH riboswitch G44U (RNA, riboswitch) UACCUGUCACAACGGCUUCCUGGCGUGACGAGGUGACCUCAUUGGAGCAA", "assay": "ITC", "details": "100 mM K+, 10 mM Mg2+; 40 mM HEPES-K pH 7.0, 298 K"}, "[3]": {"test_system": "G46N7CH-modified SAM/SAH riboswitch (RNA, riboswitch, 7-deazaguanosine (N7 to CH) at 44 (paper position 46)) UACCUGUCACAACGGCUUCCUGGCGUGACGAGGUGACCUCAGUGGAGCAA", "assay": "ITC", "details": "100 mM K+, 10 mM Mg2+; 40 mM HEPES pH 7.0, 298 K; 40 µM RNA, 1 mM ligand stock (legend; methods: 500 µM)"}, "[4]": {"test_system": "smFRET SAM/SAH riboswitch with 3' DNA extension on anchor DNA (DNA:RNA, riboswitch, 3' 18 nt of strand 1 and all of strand 2 are DNA) GAUACCUGUCACAACGGCUUCCUGGCGUGACGAGGUGACCUCAGUGGAGCAAACCGCTGCCGTCGCTCCG/CGGAGCGACGGCAGCGGT", "assay": "single-molecule FRET, high-FRET fraction", "details": "100 mM K+, 2 mM Mg2+; 40 mM HEPES pH 7.5, surface-immobilised RNA, two-state isotherm"}, "[5]": {"test_system": "SK209-50 SAM/SAH riboswitch (wt) (RNA, riboswitch) UACCUGUCACAACGGCUUCCUGGCGUGACGAGGUGACCUCAGUGGAGCAA", "assay": "ITC", "details": "100 mM K+, 10 mM Mg2+; 40 mM HEPES-K pH 7.0, 298 K"}, "[6]": {"test_system": "U23C-modified SAM/SAH riboswitch (RNA, riboswitch) UACCUGUCACAACGGCUUCCCGGCGUGACGAGGUGACCUCAGUGGAGCAA", "assay": "ITC", "details": "100 mM K+, 10 mM Mg2+; 40 mM HEPES pH 7.0, 298 K; 40 µM RNA, 1 mM ligand stock (legend; methods: 500 µM)"}, "[7]": {"test_system": "U23isoC-modified SAM/SAH riboswitch (RNA, riboswitch, isocytidine at 21 (paper position 23, replaces U)) UACCUGUCACAACGGCUUCCUGGCGUGACGAGGUGACCUCAGUGGAGCAA", "assay": "ITC", "details": "100 mM K+, 10 mM Mg2+; 40 mM HEPES pH 7.0, 298 K; 40 µM RNA, 1 mM ligand stock (legend; methods: 500 µM)"}, "[8]": {"test_system": "G44O2'H-modified SAM/SAH riboswitch (RNA, riboswitch, 2'-deoxyguanosine at 42 (paper position 44)) UACCUGUCACAACGGCUUCCUGGCGUGACGAGGUGACCUCAGUGGAGCAA", "assay": "ITC", "details": "100 mM K+, 10 mM Mg2+; 40 mM HEPES pH 7.0, 298 K; 40 µM RNA, 1 mM ligand stock (legend; methods: 500 µM)"}}, "data": [{"compound": "CSC[C@H]1O[C@@H](n2cnc3c(N)ncnc32)[C@H](O)[C@@H]1O", "values": [{"measurement": "binding", "setting": "[1]; PDB title says AMP, ligand record MTA", "result": "yes"}]}, {"compound": "Nc1ncnc2c1ncn2[C@@H]1O[C@H](CO)[C@@H](O)[C@H]1O", "values": [{"measurement": "binding", "setting": "[1]", "result": "yes"}]}, {"compound": "C[S+](CC[C@H](N)C(=O)O)C[C@H]1O[C@@H](n2cnc3c(N)ncnc32)[C@H](O)[C@@H]1O", "note": "(stereo partly shown)", "values": [{"measurement": "Kd", "setting": "[2]", "result": "13 ± 3", "unit": "µM"}, {"measurement": "binding", "setting": "[3]", "result": "no"}, {"measurement": "Kd", "setting": "[4]", "result": 10, "unit": "µM"}, {"measurement": "Kd", "setting": "[5]", "result": "19 ± 2", "unit": "µM"}, {"measurement": "binding", "setting": "[6]", "result": "no"}, {"measurement": "binding", "setting": "[7]", "result": "no"}, {"measurement": "binding", "setting": "[8]", "result": "weak"}, {"measurement": "binding", "setting": "[1]; also 6YMM in space group P312", "result": "yes"}]}, {"compound": "Nc1ncnc2c1ncn2[C@@H]1O[C@H](CSCC[C@H](N)C(=O)O)[C@@H](O)[C@H]1O", "values": [{"measurement": "Kd", "setting": "[4]", "result": 6, "unit": "µM"}, {"measurement": "Kd", "setting": "[5]", "result": "20 ± 2", "unit": "µM"}, {"measurement": "binding", "setting": "[1]; 1.7 Å, second SAH only at lattice contact", "result": "yes"}]}, {"compound": "NCCCSC[C@H]1O[C@@H](n2cnc3c(N)ncnc32)[C@H](O)[C@@H]1O", "values": [{"measurement": "Kd", "setting": "[5]", "result": "12 ± 1", "unit": "µM"}, {"measurement": "binding", "setting": "[1]", "result": "yes"}]}, {"compound": "Nc1ncnc2c1ncn2[C@@H]1O[C@H](COP(=O)(O)O)[C@@H](O)[C@H]1O", "values": [{"measurement": "binding", "setting": "[1]", "result": "yes"}]}]}
